Results on 3 compounds are retold here after ChEMBL document CHEMBL5715954, “Silencing c-Myc translation as a therapeutic strategy through targeting PI3Kδ and CK1ε in hematological malignancies” (Blood, 2017).

Design in all cases: scale not given: the % may be the effect or the level left
Test [1] deals with LIM domain kinase 2 (Homo sapiens) (UniProt P53671). The test can be described thus: Inhibition of human LIMK2 assessed as enzyme activity at 1 uM using cofilin 2 as substrate preincubated for 20 mins followed by [gamma-33P]-ATP addition and measured after 120 mins by radiometric Hot-SpotSM Kinase assay relative to control.
In test [2] the target is Proto-oncogene tyrosine-protein kinase Src (Homo sapiens) (UniProt P12931). Nature of the test: Inhibition of human c-Src assessed as enzyme activity at 1 uM using poly[Glu:Tyr] (4:1) as substrate preincubated for 20 mins followed by [gamma-33P]-ATP addition and measured after 120 mins by radiometric Hot-SpotSM Kinase assay relative to control.
The target of test [3] is Proto-oncogene tyrosine-protein kinase receptor Ret (Homo sapiens) (UniProt P07949). Nature of the test: Inhibition of human RET assessed as enzyme activity at 1 uM using RRRRRRRRRRRVYSTDYYRLFNPS as substrate preincubated for 20 mins followed by [gamma-33P]-ATP addition and measured after 120 mins by radiometric Hot-SpotSM Kinase assay relative to control.
For test [4], the target named is T1, Serine/threonine-protein kinase D2 (Homo sapiens) (UniProt Q9BZL6).
T1 sequence (whole entry): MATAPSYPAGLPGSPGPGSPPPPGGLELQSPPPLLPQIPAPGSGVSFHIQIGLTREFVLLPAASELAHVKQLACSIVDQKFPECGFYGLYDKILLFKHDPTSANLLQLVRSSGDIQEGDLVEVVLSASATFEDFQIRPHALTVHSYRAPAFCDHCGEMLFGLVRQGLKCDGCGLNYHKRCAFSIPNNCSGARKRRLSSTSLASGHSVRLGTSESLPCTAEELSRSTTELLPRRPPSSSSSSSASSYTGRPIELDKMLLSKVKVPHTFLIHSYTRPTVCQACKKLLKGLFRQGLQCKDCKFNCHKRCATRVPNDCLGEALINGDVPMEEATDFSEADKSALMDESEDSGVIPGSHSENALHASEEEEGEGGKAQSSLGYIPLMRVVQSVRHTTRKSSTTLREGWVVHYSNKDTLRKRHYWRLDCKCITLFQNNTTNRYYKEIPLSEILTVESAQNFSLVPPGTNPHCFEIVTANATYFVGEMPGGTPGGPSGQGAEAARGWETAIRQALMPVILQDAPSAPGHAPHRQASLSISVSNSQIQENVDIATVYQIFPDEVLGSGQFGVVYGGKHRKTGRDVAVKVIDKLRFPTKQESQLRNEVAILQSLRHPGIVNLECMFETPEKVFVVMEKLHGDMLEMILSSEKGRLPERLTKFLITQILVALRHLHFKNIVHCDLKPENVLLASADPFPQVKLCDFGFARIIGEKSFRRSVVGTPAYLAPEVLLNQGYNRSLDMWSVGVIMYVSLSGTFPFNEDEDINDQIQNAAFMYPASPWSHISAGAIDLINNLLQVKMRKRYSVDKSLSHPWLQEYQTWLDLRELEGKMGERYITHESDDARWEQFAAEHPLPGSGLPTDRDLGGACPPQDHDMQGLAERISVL
Nature of the test: Inhibition of human PKD2 assessed as enzyme activity at 1 uM using KKLNRTLSVA as substrate preincubated for 20 mins followed by [gamma-33P]-ATP addition and measured after 120 mins by radiometric Hot-SpotSM Kinase assay relative to control.

Test [5] addresses Myosin light chain kinase 2, skeletal/cardiac muscle (Homo sapiens) (UniProt Q9H1R3). The test can be described thus: Inhibition of human MLCK2 assessed as enzyme activity at 1 uM using KKLNRTLSFAEPG as substrate preincubated for 20 mins followed by [gamma-33P]-ATP addition and measured after 120 mins by radiometric Hot-SpotSM Kinase assay relative to control.
In test [6] the target is CDK18/Cyclin Y (Homo sapiens) (UniProt Q07002+Q8ND76). The test can be described thus: Inhibition of human CDK18/cyclin Y assessed as enzyme activity at 1 uM using RB Protein as substrate preincubated for 20 mins followed by [gamma-33P]-ATP addition and measured after 120 mins by radiometric Hot-SpotSM Kinase assay relative to control. Format: protein-complex assay.
For test [7], the target named is T2, Activin receptor type-1B (Homo sapiens) (UniProt P36896).
T2 sequence (whole entry): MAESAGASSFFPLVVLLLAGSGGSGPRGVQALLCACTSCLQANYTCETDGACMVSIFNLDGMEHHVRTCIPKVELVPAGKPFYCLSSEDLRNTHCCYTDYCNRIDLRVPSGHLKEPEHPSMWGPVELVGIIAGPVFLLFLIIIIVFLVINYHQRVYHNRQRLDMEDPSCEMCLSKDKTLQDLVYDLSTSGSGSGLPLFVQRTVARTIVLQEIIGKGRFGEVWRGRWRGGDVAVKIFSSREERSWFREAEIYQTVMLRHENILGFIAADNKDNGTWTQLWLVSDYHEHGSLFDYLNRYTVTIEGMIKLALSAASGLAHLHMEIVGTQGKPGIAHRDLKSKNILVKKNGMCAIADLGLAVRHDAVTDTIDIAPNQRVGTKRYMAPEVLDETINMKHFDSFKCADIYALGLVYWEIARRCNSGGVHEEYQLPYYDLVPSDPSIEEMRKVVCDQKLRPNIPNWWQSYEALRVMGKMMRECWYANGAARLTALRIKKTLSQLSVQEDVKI
The test can be described thus: Inhibition of human ALK4 assessed as enzyme activity at 1 uM using casein as substrate preincubated for 20 mins followed by [gamma-33P]-ATP addition and measured after 120 mins by radiometric Hot-SpotSM Kinase assay relative to control.

Test [8] has as its target Platelet-derived growth factor receptor beta (Homo sapiens) (UniProt P09619). The test can be described thus: Inhibition of human PDGFRb assessed as enzyme activity at 1 uM using poly[Glu:Tyr] (4:1) as substrate preincubated for 20 mins followed by [gamma-33P]-ATP addition and measured after 120 mins by radiometric Hot-SpotSM Kinase assay relative to control.
Test [9] deals with Tyrosine-protein kinase ABL1 (Homo sapiens) (UniProt P00519). Nature of the test: Inhibition of human ABL1 assessed as enzyme activity at 1 uM using EAIYAAPFAKKK as substrate preincubated for 20 mins followed by [gamma-33P]-ATP addition and measured after 120 mins by radiometric Hot-SpotSM Kinase assay relative to control.
Chain of Tyrosine-protein kinase ABL1 (Homo sapiens) (P00519 whole entry): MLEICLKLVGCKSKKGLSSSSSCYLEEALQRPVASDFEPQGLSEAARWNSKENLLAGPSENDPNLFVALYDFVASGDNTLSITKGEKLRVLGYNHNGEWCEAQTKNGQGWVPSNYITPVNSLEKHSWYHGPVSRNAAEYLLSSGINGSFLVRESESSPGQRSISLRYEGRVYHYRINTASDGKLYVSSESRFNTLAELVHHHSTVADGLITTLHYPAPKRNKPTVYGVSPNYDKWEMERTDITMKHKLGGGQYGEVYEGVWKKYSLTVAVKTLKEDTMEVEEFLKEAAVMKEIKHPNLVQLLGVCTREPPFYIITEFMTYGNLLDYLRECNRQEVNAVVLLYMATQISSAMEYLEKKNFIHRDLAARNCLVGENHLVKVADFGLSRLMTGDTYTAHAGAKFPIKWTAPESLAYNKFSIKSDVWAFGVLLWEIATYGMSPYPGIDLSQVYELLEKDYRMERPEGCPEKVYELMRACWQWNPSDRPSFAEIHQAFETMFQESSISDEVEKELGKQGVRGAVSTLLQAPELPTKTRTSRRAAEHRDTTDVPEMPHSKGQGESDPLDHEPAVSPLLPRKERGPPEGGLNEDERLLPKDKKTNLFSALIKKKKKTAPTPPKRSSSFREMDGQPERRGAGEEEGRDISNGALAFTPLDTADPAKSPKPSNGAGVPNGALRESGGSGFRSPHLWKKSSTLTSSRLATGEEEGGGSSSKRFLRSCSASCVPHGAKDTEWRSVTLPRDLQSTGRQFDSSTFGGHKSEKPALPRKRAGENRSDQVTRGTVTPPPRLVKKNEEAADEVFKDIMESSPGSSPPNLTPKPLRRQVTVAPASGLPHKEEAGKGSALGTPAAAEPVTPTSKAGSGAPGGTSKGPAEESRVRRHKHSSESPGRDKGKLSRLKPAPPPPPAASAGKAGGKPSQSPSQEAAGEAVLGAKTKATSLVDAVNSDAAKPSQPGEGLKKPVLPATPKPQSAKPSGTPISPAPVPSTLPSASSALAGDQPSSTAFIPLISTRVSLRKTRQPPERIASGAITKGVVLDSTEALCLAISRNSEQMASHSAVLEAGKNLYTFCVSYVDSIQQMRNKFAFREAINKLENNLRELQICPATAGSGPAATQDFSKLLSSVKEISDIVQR

Chain of Myosin light chain kinase 2, skeletal/cardiac muscle (Homo sapiens) (Q9H1R3 whole entry): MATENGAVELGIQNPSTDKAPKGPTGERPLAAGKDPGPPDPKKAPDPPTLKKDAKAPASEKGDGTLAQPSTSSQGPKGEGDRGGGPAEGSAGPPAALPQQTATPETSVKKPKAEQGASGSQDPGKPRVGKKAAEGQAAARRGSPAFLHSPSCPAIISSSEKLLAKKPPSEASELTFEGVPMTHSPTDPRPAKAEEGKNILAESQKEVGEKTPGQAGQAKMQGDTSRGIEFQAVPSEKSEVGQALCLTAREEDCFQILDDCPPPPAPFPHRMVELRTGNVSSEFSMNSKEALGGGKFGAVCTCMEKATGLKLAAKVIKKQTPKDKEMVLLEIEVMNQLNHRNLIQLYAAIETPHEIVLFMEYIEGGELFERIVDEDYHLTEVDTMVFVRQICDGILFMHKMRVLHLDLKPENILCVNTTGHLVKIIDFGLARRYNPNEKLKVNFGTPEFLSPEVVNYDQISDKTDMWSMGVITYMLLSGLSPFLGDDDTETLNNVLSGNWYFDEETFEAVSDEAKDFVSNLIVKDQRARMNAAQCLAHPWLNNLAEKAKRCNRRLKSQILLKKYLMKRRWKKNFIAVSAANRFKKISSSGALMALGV
Chain of Platelet-derived growth factor receptor beta (Homo sapiens) (P09619 whole entry): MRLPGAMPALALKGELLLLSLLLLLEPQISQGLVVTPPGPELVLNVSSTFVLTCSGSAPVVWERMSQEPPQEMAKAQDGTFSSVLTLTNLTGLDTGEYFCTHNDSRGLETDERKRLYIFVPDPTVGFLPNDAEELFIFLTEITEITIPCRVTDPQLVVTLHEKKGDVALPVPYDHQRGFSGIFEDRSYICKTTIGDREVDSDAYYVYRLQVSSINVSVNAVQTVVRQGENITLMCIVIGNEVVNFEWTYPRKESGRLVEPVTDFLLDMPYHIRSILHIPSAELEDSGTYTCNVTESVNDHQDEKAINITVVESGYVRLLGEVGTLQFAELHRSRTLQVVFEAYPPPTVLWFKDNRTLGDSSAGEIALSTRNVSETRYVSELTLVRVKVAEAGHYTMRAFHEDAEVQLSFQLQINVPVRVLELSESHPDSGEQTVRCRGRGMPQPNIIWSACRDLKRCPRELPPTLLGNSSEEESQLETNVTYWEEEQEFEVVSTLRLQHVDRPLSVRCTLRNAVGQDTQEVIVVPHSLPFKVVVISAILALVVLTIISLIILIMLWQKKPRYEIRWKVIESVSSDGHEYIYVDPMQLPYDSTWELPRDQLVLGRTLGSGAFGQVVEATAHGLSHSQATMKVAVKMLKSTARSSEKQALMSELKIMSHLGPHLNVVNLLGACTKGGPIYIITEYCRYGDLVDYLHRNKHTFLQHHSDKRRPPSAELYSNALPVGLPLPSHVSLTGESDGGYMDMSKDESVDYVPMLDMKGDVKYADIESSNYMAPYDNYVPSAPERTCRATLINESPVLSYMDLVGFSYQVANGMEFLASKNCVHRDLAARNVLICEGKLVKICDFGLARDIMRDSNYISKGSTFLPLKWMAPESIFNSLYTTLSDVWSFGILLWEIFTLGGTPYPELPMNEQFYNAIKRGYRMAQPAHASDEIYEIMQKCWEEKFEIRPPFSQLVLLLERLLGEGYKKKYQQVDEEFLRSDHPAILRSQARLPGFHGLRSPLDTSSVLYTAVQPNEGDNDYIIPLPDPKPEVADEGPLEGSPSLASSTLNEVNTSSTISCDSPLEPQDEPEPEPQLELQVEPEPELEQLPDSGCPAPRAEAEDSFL
Chain of Proto-oncogene tyrosine-protein kinase receptor Ret (Homo sapiens) (P07949 whole entry): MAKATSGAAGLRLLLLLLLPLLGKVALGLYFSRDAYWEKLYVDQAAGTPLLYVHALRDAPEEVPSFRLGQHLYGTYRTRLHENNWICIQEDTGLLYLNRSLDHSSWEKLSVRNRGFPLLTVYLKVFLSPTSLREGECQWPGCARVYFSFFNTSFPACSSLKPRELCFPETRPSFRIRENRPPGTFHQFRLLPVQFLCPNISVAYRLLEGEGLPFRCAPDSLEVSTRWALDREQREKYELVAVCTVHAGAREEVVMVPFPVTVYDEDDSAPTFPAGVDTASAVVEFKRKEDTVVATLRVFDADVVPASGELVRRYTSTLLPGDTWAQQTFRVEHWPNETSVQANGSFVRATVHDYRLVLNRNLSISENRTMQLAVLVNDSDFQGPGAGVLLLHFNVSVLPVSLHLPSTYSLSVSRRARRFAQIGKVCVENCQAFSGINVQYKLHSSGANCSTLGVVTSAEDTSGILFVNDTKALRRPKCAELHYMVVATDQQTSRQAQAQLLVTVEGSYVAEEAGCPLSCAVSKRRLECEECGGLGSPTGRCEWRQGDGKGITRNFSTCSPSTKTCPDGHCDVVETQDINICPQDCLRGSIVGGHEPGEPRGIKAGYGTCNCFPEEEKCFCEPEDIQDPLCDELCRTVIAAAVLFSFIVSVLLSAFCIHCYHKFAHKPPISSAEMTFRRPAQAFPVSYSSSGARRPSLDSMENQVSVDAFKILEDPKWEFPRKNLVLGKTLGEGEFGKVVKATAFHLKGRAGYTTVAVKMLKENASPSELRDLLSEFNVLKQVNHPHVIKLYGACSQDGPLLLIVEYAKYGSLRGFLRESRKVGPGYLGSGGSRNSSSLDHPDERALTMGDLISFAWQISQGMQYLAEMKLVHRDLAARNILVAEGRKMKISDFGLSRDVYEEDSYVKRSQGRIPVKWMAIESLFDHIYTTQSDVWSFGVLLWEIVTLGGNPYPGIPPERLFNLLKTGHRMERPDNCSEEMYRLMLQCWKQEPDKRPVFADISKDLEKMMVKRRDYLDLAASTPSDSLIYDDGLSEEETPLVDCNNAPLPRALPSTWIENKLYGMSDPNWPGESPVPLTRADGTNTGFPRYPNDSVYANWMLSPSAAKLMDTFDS
Chain of LIM domain kinase 2 (Homo sapiens) (P53671 whole entry, looked up, the tested form may be a part): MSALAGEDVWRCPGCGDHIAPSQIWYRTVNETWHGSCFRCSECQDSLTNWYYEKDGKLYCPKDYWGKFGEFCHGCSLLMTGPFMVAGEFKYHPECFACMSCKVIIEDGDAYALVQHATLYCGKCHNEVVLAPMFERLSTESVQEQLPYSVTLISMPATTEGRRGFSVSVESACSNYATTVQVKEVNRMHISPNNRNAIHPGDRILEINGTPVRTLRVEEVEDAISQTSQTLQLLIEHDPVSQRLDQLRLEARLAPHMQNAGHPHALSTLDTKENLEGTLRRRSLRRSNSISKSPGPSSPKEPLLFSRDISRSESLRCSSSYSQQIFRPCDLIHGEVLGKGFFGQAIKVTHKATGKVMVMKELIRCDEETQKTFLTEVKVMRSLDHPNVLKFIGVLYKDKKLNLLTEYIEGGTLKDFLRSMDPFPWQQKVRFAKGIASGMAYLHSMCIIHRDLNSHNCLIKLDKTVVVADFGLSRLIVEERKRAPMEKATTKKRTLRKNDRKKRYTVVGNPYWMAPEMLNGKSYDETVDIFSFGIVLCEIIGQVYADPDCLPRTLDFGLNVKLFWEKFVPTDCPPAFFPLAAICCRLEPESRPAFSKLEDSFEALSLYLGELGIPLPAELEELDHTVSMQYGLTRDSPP

With `C[C@H](Nc1ncnc2nc[nH]c12)c1cc2cccc(Cl)c2c(=O)n1-c1ccccc1`, the Activity in test [1] stood at 104%; in test [2] it was 86.7%; in test [3], 97.7%; in test [4] it was 99.2%; in test [5], 100%; in [6] it was 100%. Besides, the Activity worked out at 101% in test [7], 97.8% in [8] and 97.2% in test [9].

Regarding `CC[C@H](Nc1ncnc2[nH]cnc12)c1nc2cccc(F)c2c(=O)n1-c1ccccc1`, the Activity in [1] was 96%; in [2] it was 85.2%; in test [3], 98.6%; in test [4] it was 101%; in test [5], 98.7%; in [6], 85.7%. Moreover, the Activity stood at 101% in [7], 102% in test [8] and 99.5% in [9].

`CC(C)Oc1ccc(-c2nn([C@@H](C)c3oc4ccc(F)cc4c(=O)c3-c3cccc(F)c3)c3ncnc(N)c23)cc1F` [UMBRALISIB]: the Activity is 98.6% in test [1]; 87.6% in test [2]; 99.9% in [3]; 101% in test [4]; 101% in test [5]; 94.6% in [6]. In addition, the values for the Activity in [7], in test [8] and in test [9] were 106%, 104% and 95.1%, respectively.
